PubChem BioAssay AID1845206 (Molecular Pharmacology Branch, DTP, NCI, 2023)
pIC50: −log10 of the molar value.

Tested on: NCI-H1618 multicellular tumor spheroid viability
Experiment: Anticancer human tumor NCI-H1618 cell line growth inhibition;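 also: spheroids exposed to agents for 7 days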
Settings: for pIC50: curve of first compound; for viability, T/C: stronger effect = lower value
In short: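 Complex tumor spheroids combined malignant cells with endothelial cells and mesenchymal stem cells. DNA-damaging drugs and DNA repair inhibitors were tested alone and in combination, at half-log dilutions down from clinical Cmax (top 10 microM if Cmax unknown), 0.25% DMSO final.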

[1] = second compound 30 pM, first compound 0.00949 µM
[2] = second compound 30 pM, first compound 0.03 µM
[3] = second compound 30 pM, first compound 0.0949 µM
[4] = second compound 30 pM, first compound 0.3 µM
[5] = second compound 30 pM, first compound 0.949 µM
[6] = second compound 30 pM, first compound 3 µM
[7] = second compound 94.9 pM, first compound 0.00949 µM
[8] = second compound 94.9 pM, first compound 0.03 µM
[9] = second compound 94.9 pM, first compound 0.0949 µM
[10] = second compound 94.9 pM, first compound 0.3 µM
[11] = second compound 94.9 pM, first compound 0.949 µM
[12] = second compound 94.9 pM, first compound 3 µM
[13] = second compound 0.0003 µM, first compound 0.00949 µM
[14] = second compound 0.0003 µM, first compound 0.03 µM
[15] = second compound 0.0003 µM, first compound 0.0949 µM
[16] = second compound 0.0003 µM, first compound 0.3 µM
[17] = second compound 0.0003 µM, first compound 0.949 µM
[18] = second compound 0.0003 µM, first compound 3 µM
[19] = second compound 0.000949 µM, first compound 0.00949 µM
[20] = second compound 0.000949 µM, first compound 0.03 µM
[21] = second compound 0.000949 µM, first compound 0.0949 µM
[22] = second compound 0.000949 µM, first compound 0.3 µM
[23] = second compound 0.000949 µM, first compound 0.949 µM
[24] = second compound 0.000949 µM, first compound 3 µM
[25] = second compound 0.003 µM, first compound 0.00949 µM
[26] = second compound 0.003 µM, first compound 0.03 µM
[27] = second compound 0.003 µM, first compound 0.0949 µM
[28] = second compound 0.003 µM, first compound 0.3 µM
[29] = second compound 0.003 µM, first compound 0.949 µM
[30] = second compound 0.003 µM, first compound 3 µM

Row | SMILES | pIC50 (second compound 30 pM) | pIC50 (second compound 94.9 pM) | pIC50 (second compound 0.0003 µM) | pIC50 (second compound 0.000949 µM) | pIC50 (second compound 0.003 µM) | viability, T/C [3] | viability, T/C [4] | viability, T/C [5] | viability, T/C [6] | viability, T/C [9] | viability, T/C [10] | viability, T/C [11] | viability, T/C [12] | viability, T/C [15] | viability, T/C [16] | viability, T/C [17] | viability, T/C [18] | viability, T/C [21] | viability, T/C [22] | viability, T/C [23] | also measured
1 | CNCc1ccc(-c2cc(-c3nc(-c4ccc(S(=O)(=O)C(C)C)cc4)cnc3N)on2)cc1 + COc1cc2c(cc1O)CCNC21CSC2c3c(OC(C)=O)c(C)c4c(c3C(COC1=O)N1C(O)C3Cc5cc(C)c(OC)c(O)c5C(C21)N3C)OCO4 | 6.65 | 6.89 | > 8.02 | > 8.02 | > 8.02 | 110% | 31.5% | 5.25% | 3.91% | 59.5% | 22.3% | 2.88% | 2.64% | 58.8% | 12.6% | 2.49% | 4.13% | 6.24% | 3.07% | 3.69% | viability, T/C [1]: 103%; viability, T/C [2]: 100%; viability, T/C [7]: 98.5%; viability, T/C [8]: 93.6%; viability, T/C [13]: 11.2%; viability, T/C [14]: 17.8%; viability, T/C [19]: 3.91%; viability, T/C [20]: 15.3%; viability, T/C [24]: 2.71%; viability, T/C [25]: 3.93%; viability, T/C [26]: 6.21%; viability, T/C [27]: 4.41%; viability, T/C [28]: 3.43%; viability, T/C [29]: 2.55%; viability, T/C [30]: 0.78%
2 | Cn1ncnc1[C@H]1c2n[nH]c(=O)c3cc(F)cc(c23)N[C@@H]1c1ccc(F)cc1 + COc1cc2c(cc1O)CCNC21CSC2c3c(OC(C)=O)c(C)c4c(c3C(COC1=O)N1C(O)C3Cc5cc(C)c(OC)c(O)c5C(C21)N3C)OCO4 | 7.34 | > 8.02 | > 8.02 | > 8.02 | > 8.02 | 53% | 10.2% | 2.52% | 3.76% | 3.24% | 2.22% | 2.54% | 4.25% | 2.76% | 2.88% | 3.67% | 2.53% | 3.71% | 4.08% | 3.69% | viability, T/C [1]: 95.5%; viability, T/C [2]: 46.9%; viability, T/C [7]: 44.3%; viability, T/C [8]: 37.8%; viability, T/C [13]: 10.6%; viability, T/C [14]: 5.28%; viability, T/C [19]: 4.52%; viability, T/C [20]: 4.93%; viability, T/C [24]: 4.06%; viability, T/C [25]: 2.91%; viability, T/C [26]: 4.29%; viability, T/C [27]: 5.46%; viability, T/C [28]: 2.85%; viability, T/C [29]: 3.44%; viability, T/C [30]: 2.38%
3 | O=C(c1cc(Cc2n[nH]c(=O)c3ccccc23)ccc1F)N1CCN(C(=O)C2CC2)CC1 + COc1cc2c(cc1O)CCNC21CSC2c3c(OC(C)=O)c(C)c4c(c3C(COC1=O)N1C(O)C3Cc5cc(C)c(OC)c(O)c5C(C21)N3C)OCO4 | 5.24 | 5.74 | > 7.02 | > 7.02 | > 7.02 | 103% | 97.2% | 98.2% | 88.1% | 85.7% | 76.1% | 96.7% | 22.7% | 11.3% | 2.62% | 33.6% | 22% | 4.82% | 3.59% | 4.37% | viability, T/C (second compound 30 pM, first compound 9.49 µM): 19.8%; viability, T/C (second compound 30 pM, first compound 30 µM): 5.66%; viability, T/C (second compound 94.9 pM, first compound 9.49 µM): 11.6%; viability, T/C (second compound 94.9 pM, first compound 30 µM): 5.96%; viability, T/C (second compound 0.0003 µM, first compound 9.49 µM): 3.44%; viability, T/C (second compound 0.0003 µM, first compound 30 µM): 6.61%; viability, T/C [24]: 3.86%; viability, T/C (second compound 0.000949 µM, first compound 9.49 µM): 3.51%; viability, T/C (second compound 0.000949 µM, first compound 30 µM): 3.9%; viability, T/C [27]: 2.74%; viability, T/C [28]: 2.65%; viability, T/C [29]: 3.06%; viability, T/C [30]: 3.24%; viability, T/C (second compound 0.003 µM, first compound 9.49 µM): 3.55%; viability, T/C (second compound 0.003 µM, first compound 30 µM): 3.23%
